Source: patent publication US10472330B2, “Substituted triazenes protected from degradation by carboxylation of N1” (ARIZONA BOARD OF REGENTS ON BEHALF OF THE UNIVERSITY OF …, priority 2015, dated 2019)

Key:
[1] = not pH dependent in the physiological range; cited from earlier work
[2] = E/Z photoisomerization and thermal Z to E reversion; assay type: physicochemical; details: MeOD
[3] = Photo-induced degradation of triazabutadienes under hand-held UV lamp, followed by NMR; assay type: physicochemical
Description: (i) The reaction was monitored by comparing starting materials (A, C, D, and E) with product (B); (ii) Peak absorption and extinction coefficients for all of the compounds were excitable by the UV source used; (iii) Time-dependent conversion of compounds was measured by NMR integration.
Referring to FIG. 5A, in some embodiments, triazabutadiene molecules of the present invention may readily photoisomerize to a more reactive Z-form. As an example, an aqueous solution of Compound A was irradiated with a simple hand-held UV lamp (“365 nm,” measured at 350 nm). Consumption of Compound A was observed after only a few hours. […] Without wishing to limit the present invention to any theory or mechanism, it was hypothesized that if a two-electron process were happening, then Compound A-Z would be more basic than Compound A-E. A 1.0 N NaOH solution of Compound A was treated with light. […] Benzene diazonium ions also absorb UV light to expel nitrogen and generate a benzene radical. In order to resolve if the initial cleavage undergoes a radical homolytic mechanism versus a two-electron heterolytic mechanism, a trapping experiment using resorcinol was conducted. (Resorcinol was chosen because it can serve a dual role as a radical scavenger and a trap benzene diazonium species that could be formed.) An excess of resorcinol was added to a pH 9 borate-buffered solution of Compound A and the mixture was irradiated with light. The known azobenzene, Sudan Orange G, was formed in a 65% yield (versus 4% for the non-irradiated reaction). Derivatives of Compound A were made to examine the effects of electronic perturbations on the light-induced degradation. […] A buffered borate solution was chosen due to its alkaline nature and lack of complicating signals in the NMR experiment. Compounds C-E all have absorption spectra that are well within the range of the UV lamp (see FIG. 5A(ii)).

[4] = In situ real-time pH measurement upon UV irradiation; assay type: physicochemical; details: water, pH adjusted to 9 before irradiation, over several minutes
Description: In an effort to examine the rate order for the pH-increasing reaction more carefully, in situ, real-time pH measurements were acquired. Compound A was dissolved in water and the pH of the solution was adjusted to 9 such that it would not form Compound B in the absence of light. […] This spike was not at all consistent with the model of the pH increase being solely linked to the concentration of Compound B being generated.
A sample was irradiated and then the light was turned off once the pH of the solution started to increase noticeably. […] The experiment was repeated with increasing times of irradiation, and a saw-tooth pattern was obtained. The process was not completely reversible due to some degradation to Compound B. Indeed, triazabutadiene Compound A can serve a dual role of being a photo-masked base (see FIG. 4B(i)), and a base whose intrinsic functional group properties are altered photochemically (FIG. 4B(iii)).
Referring to FIG. 5A(iii), Compound C and Compound D were examined in an effort to find a base that was reversibly basic but also more resistant to degradation.

[5] = Resorcinol trapping of diazonium species (Sudan Orange G formation); assay type: physicochemical; details: excess resorcinol, pH 9 borate buffer
Text: (§1) Referring to FIG. 5A, in some embodiments, triazabutadiene molecules of the present invention may readily photoisomerize to a more reactive Z-form. As an example, an aqueous solution of Compound A was irradiated with a simple hand-held UV lamp (“365 nm,” measured at 350 nm). Consumption of Compound A was observed after only a few hours. […] Without wishing to limit the present invention to any theory or mechanism, it was hypothesized that if a two-electron process were happening, then Compound A-Z would be more basic than Compound A-E. A 1.0 N NaOH solution of Compound A was treated with light. […] Benzene diazonium ions also absorb UV light to expel nitrogen and generate a benzene radical. In order to resolve if the initial cleavage undergoes a radical homolytic mechanism versus a two-electron heterolytic mechanism, a trapping experiment using resorcinol was conducted. (Resorcinol was chosen because it can serve a dual role as a radical scavenger and a trap benzene diazonium species that could be formed.) An excess of resorcinol was added to a pH 9 borate-buffered solution of Compound A and the mixture was irradiated with light. The known azobenzene, Sudan Orange G, was formed in a 65% yield (versus 4% for the non-irradiated reaction). Derivatives of Compound A were made to examine the effects of electronic perturbations on the light-induced degradation. […]

[6] = Stability in DMSO with excess acetic acid, with or without light; assay type: physicochemical
Description: (§2) It is possible that Compound A may be useful as a photo-catalytic base in the context of organic reactions. […] As noted previously, Compound A is quite stable to an excess of acetic acid in DMSO, showing only 12% degradation over 14 hours at room temperature. […] To confirm that this was due to the acid, a solution of Compound A (in pure DMSO) was irradiated. After four hours of constant irradiation in acid-free DMSO, an E:Z ratio of nearly 50:50 was observed.

[7] = Solubility observations; assay type: physicochemical; details: organic solvents
Description: as §2
As another non-limiting example, an azide (e.g., NHS-azide) to N-heterocyclic carbene (NHC) route may be used to synthesize triazabutadiene molecules (e.g., see FIG. 6C). For example, as shown in Compound 4 of FIG. 6D, a triazabutadiene molecule was synthesized from dimethyl imidazole derived NHC and phenyl azide. […] This change was confirmed to coincide with diazonium formation by trapping the reactive species with resorcinol to provide known diazo dye Sudan Orange G. When the triazabutadiene molecule (Compound 4) was treated with the much less acidic acetic acid, the same product was obtained.
To render the triazabutadiene water-soluble, methyl imidazole was alkylated with propane sultone to provide the Zwitterionic NHC precursor Compound 5a (see FIG. 6E). […] Compound 6a was highly colored, so its pH dependence was studied using UV/vis. The reactions were not only pH-, but also scan-frequency dependent. Upon finding this, the stability of Compound 6a was studied in D2O in the dark using NMR. Even in the dark it was unstable, but not in the diazonium-forming way. Both Compound 6b and a more hindered mesityl (Mes) substituted Compound 6c (see FIG. 6E) were synthesized to stabilize what was initially considered to be a rearrangement pathway that could be blocked by steric repulsion. […] Dissolution in 0.1 N NaOH rendered all compounds stable (e.g., no detectable degradation after 24 hours in the dark).
To further examine the reactivity of this class of compounds, variants Compound 6d and Compound 6e were synthesized (see FIG. 6G). It was hypothesized that the p-methoxy and p-nitro analogs (Compound 6d and Compound 6e, respectively) would display different reactivity profiles. […] After collecting the precipitate and dissolving it in deuterated methanol, no change was observed from a sample of Compound 6e that had never been exposed to a buffered solution. […] It is possible that: 1) that the sodium salt of Compound 6e is much less soluble than the potassium salt; or 2) with different solvating ions present the sulfonate interacts with the electron-poor N2 nitrogen atom of the triazabutadiene to break conjugation and form an insoluble complex (this is backed by a reversible color change of the starting rust-red solid, to the light yellow precipitate). […]

[8] = Stability of non-irradiated (dark) aqueous solutions; assay type: physicochemical
Text: as §1

[9] = biological target: Bovine serum albumin (BSA) (Bos taurus, UniProt P02769); assay: BSA labeling (gel fluorescence) after acidification; assay type: biochemical; details: 10 μM BSA, 10 μM compound after acidification at pH 2 for 0-60 min, then pH 8.8, 0° C., 1 hour
Description: To 10 μM solution of BSA in 100 mM Tris-Cl pH 8.8 was added 10 μM of Compound 53 after acidification (100 mM Tris-Cl pH 2) for 0, 1, 10, 30, or 60 minutes. […] The reaction was then allowed to proceed at 0° C. for 1 hour prior to loading onto a gel.
Bovine serum albumin (BSA) was used as a model protein to help assess the ability of Compound 53 to label proteins. BSA is known to bind to small molecules. Compound 53 was subjected to acid for varying times and then added to a solution of BSA at a pH sufficient to minimize background release of the diazonium ion (FIG. 11C). […] It is possible that this indicates a cleavage of the azobenzene linkage; however, the fluorescence could be quenched by reduction at several locations. To assess whether the standard azobenzene reduction is operative with these compounds, the resulting amino phenol may be oxidized and the ortho-iminoquinone may be trapped via established Diels-Alder chemistry. In some embodiments, molecules of the present invention can help distinguish between tyrosine and histidine modifications.

Chain of Bovine serum albumin (BSA) (P02769 25-607): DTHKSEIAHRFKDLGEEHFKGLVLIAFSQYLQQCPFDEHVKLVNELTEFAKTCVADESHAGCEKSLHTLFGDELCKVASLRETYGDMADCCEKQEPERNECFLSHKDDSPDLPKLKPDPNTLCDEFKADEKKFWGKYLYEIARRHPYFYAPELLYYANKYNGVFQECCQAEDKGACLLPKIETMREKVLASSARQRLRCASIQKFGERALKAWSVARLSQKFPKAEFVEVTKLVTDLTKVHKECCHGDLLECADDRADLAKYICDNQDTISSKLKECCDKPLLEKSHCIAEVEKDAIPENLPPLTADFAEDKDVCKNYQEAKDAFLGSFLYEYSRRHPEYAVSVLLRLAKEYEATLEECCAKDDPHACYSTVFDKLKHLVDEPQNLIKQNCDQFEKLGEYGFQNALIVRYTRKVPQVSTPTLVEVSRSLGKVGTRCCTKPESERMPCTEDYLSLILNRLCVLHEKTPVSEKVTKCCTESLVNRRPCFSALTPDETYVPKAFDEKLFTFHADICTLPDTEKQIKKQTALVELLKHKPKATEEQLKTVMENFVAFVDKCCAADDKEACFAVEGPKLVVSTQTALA

In the case of `N#[N+]c1ccccc1` [benzenediazonium], the “Half-life of first-order degradation to phenol” value [1] is listed as roughly 4 h.
In the case of `Cc1cc(C)c(-n2ccn(CCCS(=O)(=O)[O-])c2=NN=Nc2ccccc2)c(C)c1.[K+]` [Compound A], the “Rate of first-order thermal isomerization” value [2] is reported as 3e-05 s⁻¹, the “Consumption of starting material under constant irradiation at pH 14” value ([3]; 1.0 N NaOH, pH 14, 20 hours constant irradiation) is reported as “near complete consumption” and the “Consumption on UV irradiation (time)” value ([3]; aqueous solution, hand-held UV lamp (365 nm, measured at 350 nm)) is reported as “a few hours”. For the same compound, the “pH of solution upon exposure to 350 nm light” value [4] was roughly 10, the “Sudan Orange G yield, irradiated” value ([5]; irradiated with light) was 65% and the “Sudan Orange G yield, non-irradiated” value ([5]; non-irradiated reaction) was 4%. The “Degradation with excess acetic acid in DMSO” value ([6]; 14 hours, room temperature, no light) was 12%, the “Degradation with acetic acid in DMSO upon irradiation” value ([6]; irradiation with light, same time frame (14 hours)) was “completely fell apart” and the “Solubility in organic solvents” value [7] was “limited solubility in all but DMSO”. For the same compound, the “Stability at pH 14 in the dark” value ([8]; 1.0 N NaOH solution, pH 14, dark) was “stable for weeks” and the “Stability of non-irradiated reaction” value ([8]; aqueous solution, similar conditions, no irradiation) was “stable for days”.
In the case of `Cc1cc(C)c(-n2ccn(CCCS(=O)(=O)O)c2=NN=Nc2ccc3c(C(F)(F)F)cc(=O)oc3c2)c(C)c1` [Compound 53], the “Labeling of BSA” value [9] is reported as “labeled in a pH dependent manner”.
